In patent US20220142884A1, “TREATMENT OF AGING OR UV-DAMAGED SKIN” (Echo Pharmaceuticals B.V., priority 2019, published 2022):

Key:
[1] = test system: UV-B induced secretion of prostaglandin E2 (PGE2); test: UV-B induced secretion of PGE2 in keratinocyte HaCaT cells (ELISA); type: cell-based, Human; conditions: component concentrations (μg/ml) per sample
Protocol: (§1) This assay was conducted on Human Epidermal Keratinocyte cells (HaCaT) and was carried out in triplicates. After reaching the required confluency, the cells were treated with pre-prepared growth medium containing the test component(s) at a final volume of 200 μL/well. Growth medium without test component was used to prepare the blank samples. The cells were incubated for 24 hr. Then, the medium was replaced with PBS (containing the test component) and the cells were subjected to 25 mJ/cm^2 (Table 2) or 12.5 mJ/cm^2 (Table 3) UV-B irradiation. The flux was determined by an external […]. Immediately after irradiation, the PBS was aspirated, and the cells were further incubated with freshly prepared media incubated for 24 hr. at 37° C. with 5% CO2. After incubation, the conditioned medium of the different treatment groups was collected under standardized conditions and centrifuged at 250×g for 5 min to remove particulates. Clear supernatants were frozen at -70° C. until analyses. The UVB-induced cytokines secretion of PGE2 was measured by commercial ELISA, according to the manufacturer's instructions. The percentage inhibition was determined by comparing PGE2 levels in the test samples with PGE2 level in the stimulated controls. Example 1 was repeated in HaCaT cells, using the lower UV-B dosage (12.5 mJ/cm^2 flux). In addition, an extra test component was used (docosahexaenoic acid).

[2] = test system: UV-B induced secretion of interleukin 8 (IL-8); test: UV-B induced secretion of IL-8 in HaCaT cells (ELISA); type: cell-based, Human; conditions: UV-B as in Example 1, vs stimulated controls, component concentrations (μg/ml) per sample
Protocol: as §1, with “analyses. […]” for “analyses. The UVB-induced cytokines secretion of PGE2 was measured by commercial ELISA, according to the manufacturer's instructions.”, “comparing IL-8” for “comparing PGE2”, “with the IL-8” for “with PGE2”, “controls.” for “controls. Example 1 was repeated in HaCaT cells, using the lower UV-B dosage (12.5 mJ/cm^2 flux). In addition, an extra test component was used (docosahexaenoic acid).”

collagen production = conditions: skin organ cultures, inhibition of PGE2 synthesis; cited from earlier work
[3] = 25 mJ/cm^2 UV-B, 24 hr pre-incubation, vs stimulated controls
[4] = lower UV-B dosage 12.5 mJ/cm^2, vs stimulated controls

| SMILES | Inhibition (%) PGE2 [1, 3] [%] | Inhibition (%) PGE2 [1, 4] [%] | Inhibition (%) IL-8 [2] [%] | collagen production (collagen production) |
| --- | --- | --- | --- | --- |
| C=C(C)[C@@H]1CCC(C)=C[C@H]1c1c(O)cc(CCCCC)cc1O [Sample 1, Cannabidiol] | 0 | −11 | −1 | – |
| C=C(C)[C@@H]1CCC(C)=C[C@H]1c1c(O)cc(CCCCC)cc1O [Sample 2, Cannabidiol] | 17 | −8 | 3 | – |
| CC/C=C\C/C=C\C/C=C\C/C=C\C/C=C\CCCC(=O)O [Sample 3, eicosapentaenoic acid] | −11 | −3 | −6 | – |
| CC/C=C\C/C=C\C/C=C\C/C=C\C/C=C\CCCC(=O)O [Sample 4, eicosapentaenoic acid] | 1 | 5 | −16 | – |
| O=C(O)Cc1ccccc1Nc1c(Cl)cccc1Cl [diclofenac] | – | – | – | enhanced collagen production |
